Data set [1] concerns the target T1, Nuclear receptor ROR-alpha (Homo sapiens) (UniProt P35398).
T1 sequence (whole entry): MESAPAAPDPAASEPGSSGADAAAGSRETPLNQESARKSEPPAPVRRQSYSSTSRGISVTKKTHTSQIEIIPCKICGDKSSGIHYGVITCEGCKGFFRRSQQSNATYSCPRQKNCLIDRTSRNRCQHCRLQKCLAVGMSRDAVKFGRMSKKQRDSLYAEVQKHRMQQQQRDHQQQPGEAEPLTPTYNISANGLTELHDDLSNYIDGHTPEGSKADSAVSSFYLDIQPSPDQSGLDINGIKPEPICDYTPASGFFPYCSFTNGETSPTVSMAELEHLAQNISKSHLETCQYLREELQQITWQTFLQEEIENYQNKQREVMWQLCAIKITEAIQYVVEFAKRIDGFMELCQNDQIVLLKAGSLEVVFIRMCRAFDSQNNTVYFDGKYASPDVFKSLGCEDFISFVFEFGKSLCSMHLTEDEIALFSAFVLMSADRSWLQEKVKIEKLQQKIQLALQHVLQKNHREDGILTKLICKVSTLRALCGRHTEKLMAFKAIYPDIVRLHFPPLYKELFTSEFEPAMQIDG
Put plainly: Inverse agonist activity at human full-length RORalpha expressed in Jurkat cells co-transfected with 5 copies of ROR response element after 18 hrs by luciferase based reporter gene assay. Type of data set: cell-based. A general note: A reporter such as luciferase makes a cellular process visible.

Data set [2] concerns the target T2, Nuclear receptor ROR-beta (Homo sapiens) (UniProt Q92753).
T2 sequence (whole entry): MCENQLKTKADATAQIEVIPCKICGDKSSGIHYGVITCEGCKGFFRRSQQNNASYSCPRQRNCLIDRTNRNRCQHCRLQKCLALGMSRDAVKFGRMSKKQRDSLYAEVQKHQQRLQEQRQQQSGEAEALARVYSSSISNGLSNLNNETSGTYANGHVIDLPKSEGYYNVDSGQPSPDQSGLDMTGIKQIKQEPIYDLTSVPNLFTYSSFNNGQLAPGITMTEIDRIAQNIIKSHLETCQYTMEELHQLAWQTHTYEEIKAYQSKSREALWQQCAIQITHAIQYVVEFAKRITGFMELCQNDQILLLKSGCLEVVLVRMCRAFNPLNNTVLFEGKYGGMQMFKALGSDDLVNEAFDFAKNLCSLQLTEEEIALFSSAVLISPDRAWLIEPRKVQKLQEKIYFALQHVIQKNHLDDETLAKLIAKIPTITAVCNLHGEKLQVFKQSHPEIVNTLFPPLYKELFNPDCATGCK
Put plainly: Inverse agonist activity at human full-length RORbeta expressed in Jurkat cells co-transfected with 5 copies of ROR response element after 18 hrs by luciferase based reporter gene assay. The data set is classed as cell-based.

The nature of data set [3]: Cytotoxicity against human CD4-positive T cells assessed as reduction in cell viability at 100 nM. The settings on record: 0.1 µM. Type of data set: cell-based.
Data set [4] concerns Mus musculus. Kind of data set: Antiarthritic activity in collagen/complete freund's adjuvant-induced DBA/1 mouse model of arthritis assessed as reduction in clinical score at 3 mg/kg/day, po administered via gavage starting from 21 day post collagen/CFA challenge and measured up to 42 days. Type of data set: functional, organism-based.
For data set [5], the system named is Mus musculus. Kind of data set: Antiarthritic activity in collagen/complete freund's adjuvant-induced DBA/1 mouse model of arthritis assessed as reduction in paw thickness at 3 mg/kg/day, po administered via gavage starting from 21 day post collagen/CFA challenge and measured up to 42 days. Type of data set: functional, organism-based.

The source made the active and inactive calls. The calls are words filed in the database; no cut-off is given here.

Turning to `CCC[C@H]1C(=O)C(C#N)=C[C@@]2(C)c3nc(-c4ccnc(C5CC5)c4)nc(-c4ccccc4F)c3CC[C@H]12`, the result in data set [1] and in data set [2] was inactive.
In the case of `Cc1cc(-c2nc(-c3ccc(F)cc3)c3c(n2)[C@]2(C)C=C(C#N)C(=O)[C@H](C)[C@H]2CC3)ccn1`, the outcome in data set [1] and in data set [2] was inactive. The Activity in data set [3] was in the range of 10 to 15%. Moreover, the outcome in the data set with Mus musculus [4] and in the data set on Mus musculus [5] was Active.

These data come from ChEMBL document CHEMBL4627267, “A novel series of cysteine-dependent, allosteric inverse agonists of the nuclear receptor RORγt” (Bioorg Med Chem Lett, 2020).
